According to paper PMC11815855, “Exploring the Structure–Activity Relationships of Albumin-Targeted Picoplatin-Based Platinum(IV) Prodrugs” (Inorganic Chemistry, 2025):
Marks after values point to notes of the source that are not given here.

Experiments:
[1] = test system: HCT116 colon cancer cells; experiment: Colony formation (clonogenic) assay, HCT116, 7 days; format: cell-based, human; details: for IC50: 7 days drug exposure, clonogenic assay
Source text: (§1) For the cell culture assays, the human ovarian model A2780/wt and its corresponding cisplatin-resistant subline A2780/cis (both purchased from Sigma and cultured in RPMI1640 medium), the human colorectal cancer model HCT116 (cultured in McCoy′s medium), and the murine (Balb/c) colorectal cancer model CT26 (cultured in DMEM/F-12 (1:1) medium) were used. The colon cancer models were purchased from the American Type Culture Collection (ATCC). The media were supplemented with 10% FCS (purchased from PAA Linz, Austria). To maintain drug resistance of A2780/cis, the subline was cultivated under continuous selection pressure (1 μM cisplatin). The selection drug was removed 1 week before the experiments were performed. Cell cultures were maintained at 37 °C in humidified atmosphere containing 5% CO2. All cultures were free of antibiotics and regularly checked for mycoplasma contamination. All cell culture media and reagents were purchased from Sigma-Aldrich Austria. All investigated drugs were dissolved in either water (oxaliplatin, carboplatin) or DMF before further dilution in cell culture medium. DMF concentrations were always below 0.5%.
(§2) Then, cells were exposed to the indicated drugs in rising concentrations. After 7 days, the cells were fixed with methanol for 20 min at 4 °C and stained with crystal violet 5 (0.01% in PBS). The fluorescence of the crystal violet was detected by the Typhoon scanner (Typhoon TRIO Variable Mode Imager, GE Healthcare Life Sciences) after excitation by the red laser (633 nm). Quantification was done with ImageJ software.

[2] = Reduction of platinum(IV)-succinimide complexes with 10 equiv GSH, UHPLC; format: physicochemical; details: 1 mM, 150 mM PB pH 7.4, 20 °C, 5 min
Source text: It is well-known that platinum(IV) complexes derived from, e.g., oxaliplatin or carboplatin, bearing leaving groups other than chlorido ligands, have distinctly slower reduction rates compared to cisplatin(IV) analogs.[54] This can be explained by a bridging interaction between the chlorido ligands and the reducing agent, which facilitates electron transfer to the platinum center.[55] […] The reductive behavior was also investigated in the presence of 10 equiv GSH in coherence with the above investigated interactions of platinum(II) with GSH (Figure S8).
(§3) PB (150 mM, pH 7.4) containing 1 mM Pt compound was incubated at 20 °C with and without the addition of 10 equiv L-ascorbic acid or reduced GSH. The reaction was monitored on a Thermo Scientific Dionex UltiMate 3000 UHPLC-system using a Waters Acquity UPLC BEH C18 1.7 μm, 3.0 × 50 mm column. Milli-Q water containing 0.1% formic acid and acetonitrile containing 0.1% formic acid were used as eluents. A gradient of 5–95% over 5 min was used with a flow of 0.6 mL/min. To evaluate the reaction process, we used the peak area of the parental complex.

CT26 colon cancer cells [3] = experiment: Colony formation (clonogenic) assay, CT26, 7 days; format: cell-based, murine; details: 7 days drug exposure
Source text: as §1, §2

[4] = test system: A2780/wt ovarian cancer cells; experiment: MTT-based cell viability assay, A2780/wt, 72 h; set-up: species or system human; details: 72 h drug exposure, means of independent experiments
Source text: as §1
(§4) Subsequently, the cells were incubated with the tested compounds in rising concentrations. […] The received data were visualized as dose–response curves by Graph Pad Prism 5 software (Graph Pad software, USA).

[5] = test system: A2780/cis ovarian cancer cells; experiment: MTT-based cell viability assay, A2780/cis (cisplatin-resistant), 72 h; set-up: species or system human; details: for IC50: 72 h drug exposure, cisplatin-resistant subline, means of independent experiments; for IC50 / IC50 in A2780/cis compared to A2780/wt: MTT-based assay; for RF (resistance factor): fold-change between IC50 values of A2780/cis:A2780/wt; for RF (resistance factor) / IC50 in A2780/cis compared to A2780/wt: 72 h
Source text: as §1, §4

horse heart CytC = molecular target: T1, horse heart CytC (Equus caballus, UniProt P00004); experiment: Reduction with cytochrome C and NADH, UHPLC; format: biochemical; details: 700 μM, 0.1 equiv CytC and 10 equiv NADH, 50 mM PB pH 6.0, 37 °C
T1 construct: 0.1 equiv horse heart CytC; from tissue; host or cells: horse heart
T1 sequence (P00004 whole entry): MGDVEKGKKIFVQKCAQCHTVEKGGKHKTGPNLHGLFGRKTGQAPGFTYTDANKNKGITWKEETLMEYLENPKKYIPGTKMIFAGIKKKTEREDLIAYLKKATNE
Source text: (§5) To explain the rather unusual in vivo findings, especially with respect to Pico-Mal, we hypothesized that inefficient reductive release of the platinum(II) core from albumin due to steric hindrance of the 2-picoline could provide a plausible explanation for the lack of antitumor activity despite a favorable pharmacokinetic profile. […] To gain insights into whether the molecular weight and thus steric demands of the reducing agent impact the reduction of picoplatin(IV) derivatives, Pico-Succ and the reference complex Cis-Succ were analyzed in the presence of cytochrome C (CytC; ∼12,000 g/mol) or AA (176 g/mol). Therefore, Pico-Succ and Cis-Succ (for synthesis and ^1H NMR characterization, see experimental part and Scheme S1) were coincubated at pH 6.0 with 0.1 equiv CytC[60] and 10 equiv reduced NADH or with 10 equiv AA at 37 °C over 4 h, and the reduction kinetics were compared relatively. The amount of remaining intact platinum(IV) complex at given time points was measured via UHPLC (Figure 6). […]
(§6) PB (50 mM, pH 6.0) containing 700 μM Pt compound was incubated at 37 °C with the addition of 0.1 equiv horse heart CytC and 10 equiv reduced NADH or with 10 equiv L-ascorbic acid. The reaction was monitored on a Thermo Scientific Dionex UltiMate 3000 UHPLC-system using a Waters Acquity UPLC BEH peptide C18 1.7 μm 2.1 × 100 mm column. […]

[6] = test system: HCT116 colon cancer cells; experiment: MTT-based cell viability assay, HCT116, 72 h; set-up: species or system human; details: 72 h drug exposure
Source text: as §1, §4

[7] = Hydrolytic stability of platinum(IV)-succinimide complexes in PB without AA, UHPLC; format: physicochemical; details: 1 mM, 150 mM PB pH 7.4, 20 °C
Protocol: (§7) Platinum(IV) prodrugs need to be reduced in the tumor environment to release the cytotoxic platinum(II) complexes. Thus, the reduction properties of Pico-Succ, PicoCarbo-Succ, and PicoOxali-Succ were investigated. As mentioned above, succinimide complexes were used for these studies to avoid competitive hydrolysis of the maleimide moiety. All platinum(IV)-succinimide complexes were incubated in both the absence and presence of a 10-fold excess L-ascorbic acid (AA) in PB at pH 7.4 and 20 °C over 6 h. The amount of remaining intact platinum(IV) complex at given time points was measured via ultrahigh performance liquid chromatography (UHPLC), as shown in Figure 2. Pico-Succ was reduced extremely fast, with only traces of the original complex left in the first measurement after ∼5 min of incubation. Even with equimolar amounts of AA, 90% of Pico-Succ was already reduced after ∼5 min (Figure S6). This level of reductive instability is exceptionally high, even when compared to the “fast” reducing cisplatin(IV) prodrugs, which show a complete conversion after ∼10 h in the presence of 10 equiv AA.[41],[53]
PB (150 mM, pH 7.4) containing 1 mM Pt compound was incubated at 20 °C with and without the addition of 10 equiv L-ascorbic acid or reduced GSH. The reaction was monitored on a Thermo Scientific Dionex UltiMate 3000 UHPLC-system using a Waters Acquity UPLC BEH C18 1.7 μm, 3.0 × 50 mm column. […]

CT26 colon cancer cells [8] = experiment: MTT-based cell viability assay, CT26, 72 h; set-up: species or system murine; details: 72 h drug exposure
Source text: as §1, §4

[9] = Reduction kinetics of platinum(IV)-succinimide complexes with AA, UHPLC; format: physicochemical; details: 1 mM, 150 mM PB pH 7.4, 20 °C
Protocol: as §7, §3

albumin = albumin (Bos taurus, UniProt P02769); experiment: Albumin binding and stability in phosphate-buffered FCS, SEC-ICP-MS; details: 50 μM in FCS (150 mM PB, pH 7.4), 37 °C, 1 h
Sequence of albumin (P02769 25-607): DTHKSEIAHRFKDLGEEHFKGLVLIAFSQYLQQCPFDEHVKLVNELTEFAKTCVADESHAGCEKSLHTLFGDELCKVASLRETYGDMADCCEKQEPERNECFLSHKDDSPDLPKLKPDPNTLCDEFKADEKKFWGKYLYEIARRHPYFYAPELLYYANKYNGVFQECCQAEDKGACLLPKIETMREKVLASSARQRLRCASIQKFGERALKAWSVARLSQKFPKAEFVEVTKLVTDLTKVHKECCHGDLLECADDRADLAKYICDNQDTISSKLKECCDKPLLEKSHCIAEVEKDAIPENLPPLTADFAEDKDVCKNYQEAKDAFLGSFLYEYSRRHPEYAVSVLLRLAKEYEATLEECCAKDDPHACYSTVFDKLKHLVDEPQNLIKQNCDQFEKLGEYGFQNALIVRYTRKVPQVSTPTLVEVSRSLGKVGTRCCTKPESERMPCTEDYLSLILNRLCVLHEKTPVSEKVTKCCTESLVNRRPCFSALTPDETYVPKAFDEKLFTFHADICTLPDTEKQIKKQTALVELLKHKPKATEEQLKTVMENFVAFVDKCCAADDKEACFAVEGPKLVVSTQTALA
Protocol: FCS was purchased from Sigma-Aldrich and buffered with 150 mM phosphate pH 7.4 in order to guarantee a stable pH. The platinum(IV) complexes were dissolved in 150 mM PB (pH 7.4) at a concentration of 5 mM and diluted 1:100 in buffered serum to obtain a final concentration of 50 μM. […] Between each sample, a pure water blank was measured. […] Oxygen (purity 5.5, Messer Austria GmbH, Gumpoldskirchen, Austria) was used as the reaction gas.

[10] = Reduction with 10 equiv AA at pH 6.0 and 37 °C, UHPLC; format: physicochemical; details: 700 μM, 50 mM PB pH 6.0, 37 °C
Source text: as §5, §6

CT26 allografts [11] = details: carboplatin 60 mg/kg i.v. once a week for two weeks, Figure S11
Protocol: days after first treatment
Balb/c mice. Mice were treated i.v. with the maximal tolerated dose of the respective drug and compared
to the solvent control. […] Oxaliplatin (9
mg/kg) was applied twice a week for two weeks. Tumor volume data are presented as means ± SEM. The
overall survival is depicted via a Kaplan –Meier curve.

[12] = Interaction of platinum(II) complexes with 10 equiv GSH, NMR; format: physicochemical; details: 1 mM complex, 10% D2O/90% PBS pH 7.4, 37 °C, 8 h, 1H NMR
Protocol: The amount of remaining platinum(II) complex was monitored via ^1H NMR spectroscopy and, particularly for ^15N-cisplatin, via [^1H, ^15N] heteronuclear single quantum coherence (HSQC) NMR spectroscopy (Figure 1).[47]
(§8) An 1 mM solution of Pt compound was incubated in a mixture of 90% PB or PBS (150 mM, pH 7.4) and 10% D2O at 37 °C with and without the addition of 10 equiv GSH. The reaction was monitored with ^1H or [^1H, ^15N] […] The reference spectrum was shifted with a value of −0.5 ppm compared to the original ppm value calibrated to D2O before overlay with a spectrum at a single time point. In case of ^15N-cisplatin, the cross-peak of the parental complex in [^1H, ^15N] HSQC at time point 0 h was used as reference, and spectral overlay was achieved by shifting the 2D spectra at all given time points (2, 4, 6, and 8 h) with vertical steps of +14 ppm compared to the original ^15N NMR ppm value of the parental complex.

[13] = Stability of platinum(II) complexes in PBS or PB, NMR; format: physicochemical; details: 1 mM, pH 7.4, 37 °C, 8 h incubation, no GSH
Protocol: as §8

CT26 allografts [14] = details: oxaliplatin 9 mg/kg i.v. twice a week for two weeks, Figure S11 ref Schueffl et al, Chem. Sci. 2021, 12, 12587-12599; cited from earlier work

SMILES | IC50 [1] [µM] | IC50 (CT26 colon cancer cells [3]) [µM] | IC50 [4] [µM] | IC50 [5] [µM] | RF (resistance factor) [5] | IC50 [6] [µM] | IC50 (CT26 colon cancer cells [8]) [µM] | IC50 in A2780/cis compared to A2780/wt [5] [fold] | complex left in 10% D2O/90% PBS [13] | further results
CC(=O)[O][Pt]([Cl])([Cl])[O]C(=O)NCCN1C(=O)CCC1=O.Cc1ccccn1.N [Pico-Succ, (OC-6-21)[Acetato(ammine)(dichlorido)(1-(2-isocyanatoethyl)pyrrolidine-2,5-dione)(2-methylpyridine)platinum(IV)]] | 32.1 | 30.9 | 63.2 | > 100 | >1.6 | > 100 | 77.8 |  |  | reduction of IC50 values, 7 days vs 72 h ([1]; HCT116 and CT26, colony formation 7 days compared to MTT 72 h): 2–3 fold; original compound remaining after 5 min with 10 equiv GSH [2]: only traces; time to complete reduction with CytC (horse heart CytC): 1 h; time stable in absence of AA [7]: over 6 h; original complex left after ∼5 min with 10 equiv AA ([9]; 10 equiv AA, first measurement ∼5 min): only traces; complex reduced after ∼5 min with equimolar AA ([9]; equimolar AA, ∼5 min): 90%; intact platinum(IV) complex left after 1 h in FCS (albumin): only traces; reduction with AA [10]: immediate reduction
N.N.O=C([O-])C1(C(=O)[O-])CCC1.[Pt+2] [carboplatin] | 7.41 | 4.37 | 32 | 74.9 | 2.3**** | 63.2 | 22.1 | 2.3 | > 95% | response of CT26 allografts to carboplatin (CT26 allografts [11]): highly carboplatin-resistant; intact platinum(II) complex left after 8 h with GSH [12]: ~60%
O=C1[O][Pt]2([NH][C@@H]3CCCC[C@H]3[NH]2)[O]C1=O [oxaliplatin] | 1.46 | 1.81 | 0.63 | 0.68 | 1.1^ns | 2.19 | 1.97 | 1.1 | readily degraded | response of CT26 allografts to oxaliplatin (CT26 allografts [14]): only moderately responsive; complex left in 10% D2O/90% PB [13]: > 90%
